From patent US20040234588A1 (priority 2000, published 2004)
Read-outs that look alike come from different tables or passages of the source.

How the values were obtained:
[1] = system: Human glioma cell line SF-767; assay type: cell-based; conditions: cells pretreated with chloroquine 30 minutes at 37° C., nanoemulsion/p-PLL/DNA complex, two quantities
[2] = assay type: physicochemical
[3] = system: human glioma cells 767 SF; assay type: cell-based; conditions: for Concentration of B in the cells after 18 hrs incubation: initial B in the media 38 μg
[4] = assay type: physicochemical; conditions: after 38 days at 4° C., HPLC
rat 9L glioma cells = assay type: cell-based

## CCN(CC)CCCC(C)Nc1ccnc2cc(Cl)ccc12 (stereo not drawn) [chloroquine]
[1]
  effect on transfection efficiency (β-galactosidase activity): greatly increased the transfection efficiency

## C[C@@H]1[C@H](O)[C@@H](C)/C=C/C=C/C=C/C=C/C=C/C=C/C=C/[C@H](O[C@@H]2O[C@H](C)[C@@H](O)[C@H](N)[C@@H]2O)C[C@@H]2O[C@](O)(C[C@@H](O)C[C@@H](O)[C@H](O)CC[C@@H](O)C[C@@H](O)CC(=O)O[C@H]1C)C[C@H](O)[C@H]2C(=O)O [AmpB, Amphotericin B]
[2]; 10 mg AmpB added to 100 mg lipids
  AmpB incorporated in the submicron emulsion system: 2.33 mg
[2]; first fraction, particle size 177 nm
  incorporated AmpB recovered with the first fraction: 72%

## cholesteryl 1,12-dicarba-closo-dodecaborane 1-carboxylate [BCH]
[3]; FBS (lipoproteins present) vs LPDS (no lipoproteins)
  uptake in FBS relative to LPDS: more than triple
[3]; FBS media
  Concentration of B in the cells after 18 hrs incubation: 57.6 ± 15.5 μg/g cells
[3]; LPDS media
  Concentration of B in the cells after 18 hrs incubation: 14.7 ± 3.5 μg/g cells
[4]
  initial BCH recovered from the formulation: about 85%
Rat 9L glioma cells; High concentration: initial B in the media 16.5 μg/ml
  Concentration of B in the cells after 18 hrs incubation: 61 ± 13 μg/g cells
Rat 9L glioma cells; Low concentration: initial B in the media 8.25 μg/ml
  Concentration of B in the cells after 18 hrs incubation: 50 ± 10 μg/g cells
